Data as given in patent US20040259764A1, “Reticulocyte depletion signatures” (priority 2002, published 2004).
Like-named read-outs stand apart in the source and are kept apart here. Marks after values point to notes of the source that are not given here.

Assays:
[1] = tested on: Reticulocyte Depletion Signature (Alas2 and peripherin probes), liver
Text: (§1) Compound dosing was based on the acute dose LD50s recorded in published reference or literature sources. […] The MTD (maximum tolerated dose) was then selected as the dose at which the animals […] 5-10% body weight during the 5-day range finding study. […] In addition, the clinical observations must show no or mild clinical signs during the whole of the range-finding study. At the next highest dose, signs and symptoms of adverse effects and exceeding those of the MTD should be seen to occur. Should these criteria not be met, the range-finding study is repeated using a modified dose range.
(§2) After determination of the MTD and FED for a compound, each compound was dissolved in a vehicle for administration on day 1 of the study (additional daily doses were stored as frozen aliquots from this initial formulation). Each compound was administered to three individual male Sprague-Dawley rats for each of the two doses (MTD and FED) for one of four different times (0.25 day, 1 day, 3 days, and 5 days), yielding a total of up to 24 animals per compound study. Vehicle choice was based on solubility of the compound, effect of food on adsorption, and the vehicles used in the literature reports examined during the FED selection investigations, described above. Generally, the route and vehicle in which the FED was defined are used. When there was a choice of routes and vehicles, oral routes were chosen over injection routes. Many compounds, especially oncolytics, are only administerable intravenously. In such cases, the compound was administered as an intravenous formulation into the tail vein. Orally administered compounds were given dissolved in either water, 1% carboxymethycellulose (CMC) or corn oil. Intravenously and intraperitoneally administered compounds were given in 0.9% saline. Subcutaneously administered compounds were given in corn oil. Animal body weights were determined at 1 day and, where appropriate, at 4 days, before necropsy, and clinical observations were made on a daily basis. Control animals were dosed with vehicle only. Three male animals were used for each dose and time combination used for the compound treatment.
(§3) Tissue harvest and handling: After the allocated treatment time, the tissues from the animals were harvested. […] All the tissues collected were divided to provide samples for histopathological analyses, and the remainder of each tissue was then snap-frozen.
(§4) Preparation of enriched mRNA: Punch biopsies were taken from the frozen tissues and were completely homogenized before being processed using the MagNA Pure robot. (Roche Diagnostics Corp., Indianapolis, Ind.) in combination with the MagNA Pure LC RNA Isolation kit II (Roche Diagnostics Corp). The amount of lysis buffer was adjusted to allow 1 ml per 50 mg for liver tissue, or 1 ml per 80 mg for all other tissues. After complete homogenization and before loading of the samples into the 32-well MagNA Pure plate, the samples were syringed 5-6 times using a 20-gauge 3-ml syringe to ensure a smooth solution for robotic processing. Tissue sample processing was performed in duplicate wells (loading 150 μl of homogenized sample and 150 μl of additional lysis buffere to each well) of the MagNA Pure LC, which is programmed to extract mRNA using oligo-dT selection technology into a final elution volume of 100 μl. Poly A(+) RNA sample concentration was performed using a standard ethanol precipitation protocol in the presence of glycogen (50 μg/ml). After precipitation the final purified mRNA sample was resuspended in 7 μl DEPC-treated water and quantified using a Ribogreen high-range assay (Molecular Probes) on the Victor-Wallace II Fluorometer (Perkin-Elmer).

[2] = tested on: Reticulocyte Depletion Signature (Alas2 and peripherin probes), bone marrow
Text: as §1, §2, §3, §4

[3] = tested on: Reticulocyte Depletion Signature (Alas2 and peripherin probes), spleen
Text: as §1, §2, §3, §4

[4] = bone marrow data, signature derived from liver, * = p < 0.01
[5] = liver data, highest training treatment normalised to 100, * = p < 0.01
[6] = spleen data, signature derived from liver, * = p < 0.01

Cc1ccc(C)c(OCCCC(C)(C)C(=O)O)c1 [GEMFIBROZIL]
Signature Projection Score (SPS) ([1]; rat, in vivo): 18

C#C[C@]1(OC(C)=O)CC[C@H]2[C@@H]3CCC4=CC(=O)CC[C@@H]4[C@H]3CC[C@@]21C [NORETHINDRONE ACETATE]
Signature Projection Score (SPS) ([1]; rat, in vivo): 26

O=C1[O][Pt]2([NH][C@@H]3CCCC[C@H]3[NH]2)[O]C1=O [OXALIPLATIN]
SPS (Bone Marrow) [2, 4]: 18

C[C@]12CC[C@@H]3c4ccc(O)cc4CC[C@H]3[C@@H]1C[C@@H](O)[C@@H]2O [ESTRIOL]
Signature Projection Score (SPS) ([1]; rat, in vivo): 41

O=C(c1ccc(OCCN2CCCCC2)cc1)c1c(-c2ccc(O)cc2)sc2cc(O)ccc12 [RALOXIFENE]
Signature Projection Score (SPS) ([1]; rat, in vivo): 23

S=C=Nc1cccc2ccccc12 [1-NAPHTHYL ISOTHIOCYANATE]
SPS (Bone Marrow) [2, 4]: 0

Clc1ccc(COC(Cn2ccnc2)c2ccc(Cl)cc2Cl)c(Cl)c1 (centres unmarked) [MICONAZOLE]
Signature Projection Score (SPS) ([1]; rat, in vivo): 38

COc1c(C)c2c(c(O)c1C/C=C(\C)CCC(=O)OCCN1CCOCC1)C(=O)OC2 [MYCOPHENOLATE MOFETIL]
SPS (Bone Marrow) [2, 4]: 0

OC(Cn1cncn1)(Cn1cncn1)c1ccc(F)cc1F [FLUCONAZOLE]
Signature Projection Score (SPS) ([1]; rat, in vivo): 26

Cc1oncc1C(=O)Nc1ccc(C(F)(F)F)cc1 [LEFLUNOMIDE]
SPS (Bone Marrow) ([2]; rat, in vivo): 0 | Signature Projection Score (SPS) ([1]; rat, in vivo): 22 | SPS (Spleen) ([3]; rat, in vivo): 71*

C[C@]12CC[C@@H]3c4ccc(O)cc4CC[C@H]3[C@@H]1CC[C@@H]2O [BETA ESTRADIOL]
Signature Projection Score (SPS) [1, 5]: 27

CCC1=C[C@@H]2CN(C1)Cc1c([nH]c3ccccc13)[C@@](C(=O)OC)(c1cc3c(cc1OC)N(C)[C@H]1[C@@](O)(C(=O)OC)[C@H](OC(C)=O)[C@]4(CC)C=CCN5CC[C@]31[C@@H]54)C2 [VINORELBINE]
SPS (Bone Marrow) ([2]; rat, in vivo): 132*

CC(C)(c1ccc(O)cc1)c1ccc(O)cc1 [BISPHENOL A]
SPS (Bone Marrow) ([2]; rat, in vivo): 0 | SPS (Spleen) ([3]; rat, in vivo): 0

CCN(CC)N=O [N-NITROSODIETHYLAMINE]
SPS (Bone Marrow) [2, 4]: 0 | SPS (Spleen) [3, 6]: 0

CC[C@]1(O)C[C@@H]2CN(CCc3c([nH]c4ccccc34)[C@@](C(=O)OC)(c3cc4c(cc3OC)N(C)[C@H]3[C@@](O)(C(=O)OC)[C@H](OC(C)=O)[C@]5(CC)C=CCN6CC[C@]43[C@@H]65)C2)C1 [VINBLASTINE]
SPS (Bone Marrow) ([2]; rat, in vivo): 0

CN(Cc1cnc2nc(N)nc(N)c2n1)c1ccc(C(=O)N[C@@H](CCC(=O)O)C(=O)O)cc1 [METHOTREXATE]
SPS (Bone Marrow) ([2]; rat, in vivo): 0 | Signature Projection Score (SPS) ([1]; rat, in vivo): 72* | SPS (Spleen) ([3]; rat, in vivo): 148*

CS(=O)(=O)OCCCCOS(C)(=O)=O [BUSULFAN]
SPS (Bone Marrow) ([2]; rat, in vivo): 0 | Signature Projection Score (SPS) ([1]; rat, in vivo): 43 | SPS (Spleen) ([3]; rat, in vivo): 34

CC[C@]1(O)C[C@H]2CN(CCc3c([nH]c4ccccc34)[C@@](C(=O)OC)(c3cc4c(cc3OC)N(C=O)[C@H]3[C@@](O)(C(=O)OC)[C@H](OC(C)=O)[C@]5(CC)C=CCN6CC[C@]43[C@@H]65)C2)C1 [VINCRISTINE]
SPS (Bone Marrow) ([2]; rat, in vivo): 126*

CCO [ETHANOL]
SPS (Bone Marrow) ([2]; rat, in vivo): 0

O=NN(CCCl)C(=O)NC1CCCCC1 [LOMUSTINE]
SPS (Bone Marrow) [2, 4]: 0 | Signature Projection Score (SPS) [1, 5]: 18 | SPS (Spleen) [3, 6]: 0

CC[C@H](C)C(=O)O[C@H]1C[C@@H](C)C=C2C=C[C@H](C)[C@H](CC[C@@H]3C[C@@H](O)CC(=O)O3)[C@H]21 [LOVASTATIN]
Signature Projection Score (SPS) ([1]; rat, in vivo): 26

CC(C)n1c(/C=C/C(O)CC(O)CC(=O)O)c(-c2ccc(F)cc2)c2ccccc21 (centres unmarked) [FLUVASTATIN]
Signature Projection Score (SPS) ([1]; rat, in vivo): 0

CC(C)(Oc1ccc(CCNC(=O)c2ccc(Cl)cc2)cc1)C(=O)O [BEZAFIBRATE]
Signature Projection Score (SPS) ([1]; rat, in vivo): 16

CC#C[C@]1(O)CC[C@H]2[C@@H]3CCC4=CC(=O)CCC4=C3[C@@H](c3ccc(N(C)C)cc3)C[C@@]21C [MIFEPRISTONE]
Signature Projection Score (SPS) ([1]; rat, in vivo): 24

O=NN(CCCl)C(=O)NCCCl [CARMUSTINE]
SPS (Bone Marrow) [2, 4]: 0 | Signature Projection Score (SPS) [1, 5]: 42 | SPS (Spleen) [3, 6]: 0

COc1cccc2c1C(=O)c1c(O)c3c(c(O)c1C2=O)C[C@@](O)(C(C)=O)C[C@@H]3O[C@H]1C[C@H](N)[C@H](O)[C@H](C)O1 [DAUNORUBICIN]
SPS (Bone Marrow) [2, 4]: 0

CN(C)c1nc(N(C)C)nc(N(C)C)n1 [ALTRETAMINE]
SPS (Bone Marrow) ([2]; rat, in vivo): 0 | SPS (Spleen) ([3]; rat, in vivo): 0

CC1=C(/C=C/C(C)=C/C=C/C(C)=C\C(=O)O)C(C)(C)CCC1 [ISOTRETINOIN]
Signature Projection Score (SPS) ([1]; rat, in vivo): 23

CC/C(=C(/CC)c1ccc(O)cc1)c1ccc(O)cc1 [DIETHYLSTILBESTROL]
SPS (Bone Marrow) ([2]; rat, in vivo): 0 | Signature Projection Score (SPS) ([1]; rat, in vivo): 33 | SPS (Spleen) ([3]; rat, in vivo): 88*

O=C(O)CCCc1ccc(N(CCCl)CCCl)cc1 [CHLORAMBUCIL]
SPS (Bone Marrow) [2, 4]: 0 | Signature Projection Score (SPS) [1, 5]: 33 | SPS (Spleen) [3, 6]: 0

C#C[C@]1(O)CC[C@H]2[C@@H]3CCc4cc(O)ccc4[C@H]3CC[C@@]21C [ETHINYLESTRADIOL]
Signature Projection Score (SPS) ([1]; rat, in vivo): 75*

C[C@@H]1C[C@H]2[C@@H]3CCC4=CC(=O)C=C[C@]4(C)[C@@]3(F)[C@@H](O)C[C@]2(C)[C@@]1(O)C(=O)CO [DEXAMETHASONE]
Signature Projection Score (SPS) ([1]; rat, in vivo): 22

N.N.O=C([O-])C1(C(=O)[O-])CCC1.[Pt+2] [CARBOPLATIN]
SPS (Bone Marrow) [2, 4]: 0 | SPS (Spleen) [3, 6]: 0

C[C@H]1O[C@@H](n2cc(F)c(=O)[nH]c2=O)[C@H](O)[C@@H]1O [DOXIFLURIDINE]
SPS (Bone Marrow) ([2]; rat, in vivo): 0

ClC(Cl)(Cl)Cl [CARBON TETRACHLORIDE]
SPS (Bone Marrow) [2, 4]: 0

CN(C)C=O [N,N-DIMETHYLFORMAMIDE]
SPS (Bone Marrow) [2, 4]: 0 | SPS (Spleen) [3, 6]: 0

N.N.[Cl][Pt][Cl] [CISPLATIN]
SPS (Bone Marrow) [2, 4]: 0 | SPS (Spleen) [3, 6]: 0

CC(=O)N1CCN(c2ccc(OCC3COC(Cn4ccnc4)(c4ccc(Cl)cc4Cl)O3)cc2)CC1 (centres unmarked) [KETOCONAZOLE]
Signature Projection Score (SPS) ([1]; rat, in vivo): 29

CC(C)c1c(C(=O)Nc2ccccc2)c(-c2ccccc2)c(-c2ccc(F)cc2)n1CC[C@@H](O)C[C@@H](O)CC(=O)O [ATORVASTATIN]
Signature Projection Score (SPS) ([1]; rat, in vivo): 29

Oc1c(Cl)cc(Cl)cc1Sc1cc(Cl)cc(Cl)c1O [BITHIONOL]
SPS (Bone Marrow) ([2]; rat, in vivo): 0 | SPS (Spleen) ([3]; rat, in vivo): 27

C[C@]12CCC(=O)C=C1CC[C@@H]1[C@@H]2CC[C@@]2(C)[C@H]1CC[C@]2(C)O [17-METHYLTESTOSTERONE]
Signature Projection Score (SPS) [1, 5]: 59*
